Experimental findings from ChEMBL document CHEMBL1156695, “The novel primaquine derivatives of N-alkyl, cycloalkyl or aryl urea: synthesis, cytostatic and antiviral activity evaluations” (Eur J Med Chem, 2008) are described below.

One series deals with Human alphaherpesvirus 2. Briefly: Antiviral activity against HSV2 infected in HEL cells assessed as reduction of virus-induced cytopathogenicity. The series is classed as functional, organism-based. (Cytopathic effects are the visible damage that an infection or toxin causes in cultured cells.)
In a further series the test system is Human alphaherpesvirus 1. Briefly: Antiviral activity against HSV1 infected in HEL cells assessed as reduction of virus-induced cytopathogenicity. Type of series: functional, organism-based.
The subject of series [1] is Vesicular stomatitis virus. Briefly: Antiviral activity against vesicular stomatitis virus infected in HEL cells assessed as reduction of virus-induced cytopathogenicity. The series is classed as functional, organism-based.
Series [2] deals with Mammalian orthoreovirus 1. Briefly: Antiviral activity against Reovirus 1 infected in african green monkey Vero cells assessed as reduction of virus-induced cytopathogenicity. Type of series: functional, organism-based.
Series [3] is described as follows: Cytotoxicity against HEL cells assessed as reduction in cell growth. Type of series: cell-based. The conditions noted are these: human.
Series [4] deals with Coxsackievirus B4. The experiment in a line: Antiviral activity against Coxsackievirus B4 infected in HeLa cells assessed as reduction of virus-induced cytopathogenicity. Type of series: functional, organism-based.
The test system of the next series is MCF7. Briefly: Cytostatic activity against human MCF7 cells after 72 hrs by MTT assay. The series is classed as functional, cell-based. As to conditions: MCF7, 72 h. (In general: Formazan colour is commonly taken as a measure of viable cells.)
A short description of series [5]: Cytostatic activity against human Molt4/C8 cells after 72 hrs by MTT assay. The series is classed as functional, cell-based. The conditions noted are these: MOLT-4, 72 h.
In the next series the test system is MIA PaCa-2. Briefly: Cytostatic activity against human MiaPaCa2 cells after 72 hrs by MTT assay. Type of series: functional, cell-based. The conditions noted are these: MIA PaCa-2, 72 h.
For the next series, the system named is SW-620. The experiment in a line: Cytostatic activity against human SW620 cells after 72 hrs by MTT assay. As to conditions: SW-620, 72 h. The series is classed as functional, cell-based.
Series [6] is described as follows: Cytostatic activity against human WI38 cells after 72 hrs by MTT assay. The series is classed as cell-based. As to conditions: WI-38, 72 h.
A short description of series [7]: Cytotoxicity against HEL cells assessed as change in cell morphology. Type of series: cell-based. The conditions noted are these: human.
Series [8] has as its system Respiratory syncytial virus. The experiment in a line: Antiviral activity against respiratory syncytial virus infected in HeLa cells assessed as reduction of virus-induced cytopathogenicity. The series is classed as functional, organism-based.
A further series deals with NCI-H460. Briefly: Cytostatic activity against human H460 cells after 72 hrs by MTT assay. The conditions noted are these: NCI-H460, 72 h. Type of series: functional, cell-based.
In series [9] the test system is Human betaherpesvirus 5. The experiment in a line: Antiviral activity against HCMV Davis infected in HEL cells assessed as reduction of virus-induced cytopathogenicity after 3 days. The series is classed as functional, organism-based. As to conditions: Human betaherpesvirus 5, Davis, 72 h.
For a further series, the system named is Sindbis virus. Briefly: Antiviral activity against Sindbis virus infected in african green monkey Vero cells assessed as reduction of virus-induced cytopathogenicity. Type of series: functional, organism-based.
The subject of another series is CCRF-CEM. Briefly: Cytostatic activity against human CEM cells after 72 hrs by MTT assay. The series is classed as functional, cell-based.
The subject of a further series is Human respirovirus 3. Briefly: Antiviral activity against parainfluenza virus 3 infected in african green monkey Vero cells assessed as reduction of virus-induced cytopathogenicity. Type of series: functional, organism-based.
In series [10] the test system is Vesicular stomatitis virus. The experiment in a line: Antiviral activity against vesicular stomatitis virus infected in HeLa cells assessed as reduction of virus-induced cytopathogenicity. Type of series: functional, organism-based.
In another series the test system is L1210. Briefly: Cytostatic activity against mouse L1210 cells after 72 hrs by MTT assay. The conditions noted are these: L1210, 72 h. The series is classed as functional, cell-based.
Series [11] relates to Human betaherpesvirus 5. The experiment in a line: Antiviral activity against HCMV AD169 infected in HEL cells assessed as reduction of virus-induced cytopathogenicity after 3 days. The series is classed as functional, organism-based. The conditions noted are these: Human betaherpesvirus 5, AD169, HEL, 72 h.
Another series relates to Punta Toro virus. The experiment in a line: Antiviral activity against Punta Toro virus infected in african green monkey Vero cells assessed as reduction of virus-induced cytopathogenicity. Type of series: functional, organism-based.
The subject of series [12] is Coxsackievirus B4. The experiment in a line: Antiviral activity against Coxsackievirus B4 infected in african green monkey Vero cells assessed as reduction of virus-induced cytopathogenicity. The series is classed as functional, organism-based.
For the next series, the system named is HeLa. Briefly: Cytostatic activity against human HeLa cells after 72 hrs by MTT assay. The series is classed as functional, cell-based.

Structures are written as SMILES. The source made the active and inactive calls. The calls are words filed in the database; no cut-off is given here.

A word on the CC50: it is the concentration that lowers cell viability or growth by half. The IC50 is the midpoint of a concentration-inhibition curve. One may read the EC50 as the concentration at which the effect is half-maximal. With `CCN(CC)C(=O)NCCCC(C)Nc1cc(OC)cc2cccnc12` (stereo unspecified), the outcome (in the series on Human alphaherpesvirus 2; with Human alphaherpesvirus 1; in [1]; in [2]; in the series on Coxsackievirus B4 [4]; in series [8]) was inactive. Further, the result (in the series with Sindbis virus; with Human respirovirus 3; in series [10]; in the series on Punta Toro virus; in the series on Coxsackievirus B4 [12]) was inactive. In series [3], the CC50 was more than 100 µM. The IC50 is more than 63 µM with MCF7; 155 µM in series [5]; more than 100 µM in the series with MIA PaCa-2; more than 100 µM in the series on SW-620; more than 100 µM in series [6]; more than 100 µM with NCI-H460. Besides, the IC50 with CCRF-CEM was 142 µM; in the series on L1210 it was 207 µM; in the series with HeLa, 58 µM. For the same compound, in [7], the MCC was more than 100 µM. The values for the EC50 in the series with Human betaherpesvirus 5 [9] and in the series on Human betaherpesvirus 5 [11] were 26 µM and 49 µM, respectively.
Take `COc1cc(NC(C)CCCNC(=O)N(C2CCCCC2)C2CCCCC2)c2ncccc2c1` (stereo unspecified): the outcome (in the series with Human alphaherpesvirus 2; with Human alphaherpesvirus 1; in series [1]; in [2]; with Coxsackievirus B4 [4]; in series [8]) was inactive. The outcome (in the series on Sindbis virus; in the series on Human respirovirus 3; in series [10]; in the series with Punta Toro virus; in the series with Coxsackievirus B4 [12]) was inactive. Moreover, the CC50 in series [3] worked out at 27 µM. Also, the IC50 with MCF7 stood at 9 µM; in [5], 36 µM; in the series with MIA PaCa-2 it was 17 µM; in the series with SW-620, 15 µM; in [6], 18 µM; with NCI-H460, 21 µM. Further, the IC50 in the series on CCRF-CEM was found to be 13 µM; in the series with L1210 it was 15 µM; with HeLa it was 23 µM. In [7], the MCC worked out at 4 µM. Besides, the EC50 in the series on Human betaherpesvirus 5 [9] and in the series on Human betaherpesvirus 5 [11] was more than 0.8 µM in each case.
For `COc1cc(NC(C)CCCNC(=O)NC2CCCC2)c2ncccc2c1` (stereo unspecified), the outcome (in the series on Human alphaherpesvirus 2; in the series on Human alphaherpesvirus 1; in [1]; in series [2]; in the series with Coxsackievirus B4 [4]; in [8]) was inactive. Moreover, the result (in the series on Sindbis virus; in the series with Human respirovirus 3; in series [10]; in the series with Punta Toro virus; in the series on Coxsackievirus B4 [12]) was inactive. Further, the CC50 in series [3] came to 56 µM. Further, the IC50 with MCF7 came out at 30 µM; in series [5], 44 µM; in the series with MIA PaCa-2, 19 µM; with SW-620, 19 µM; in [6], 29 µM; in the series on NCI-H460 it was 25 µM. Also, the IC50 in the series on CCRF-CEM is 41 µM; with L1210, 41 µM; in the series with HeLa it was 21 µM. Besides, the MCC in [7] was 100 µM. Moreover, the results for the EC50 in the series with Human betaherpesvirus 5 [9] and with Human betaherpesvirus 5 [11] were 12 µM and more than 20 µM, respectively.
`COc1cc(NC(C)CCCNC(=O)NC2CCCCC2)c2ncccc2c1` (stereo unspecified): the outcome (with Human alphaherpesvirus 2; with Human alphaherpesvirus 1; in series [1]; in [2]; in the series with Coxsackievirus B4 [4]; in series [8]) was inactive. Moreover, the outcome (in the series with Sindbis virus; with Human respirovirus 3; in [10]; with Punta Toro virus; with Coxsackievirus B4 [12]) was inactive. The CC50 in series [3] turned out to be 94 µM. Also, the IC50 in the series with MCF7 is 41 µM; in series [5], 50 µM; in the series on MIA PaCa-2, 38 µM; in the series on SW-620 it was 49 µM; in [6] it was more than 100 µM; in the series with NCI-H460, 77 µM. The concentration for half-maximal inhibition (IC50) was 36 µM in the series on CCRF-CEM, 23 µM in the series with L1210 and more than 100 µM with HeLa. For the same compound, the MCC in series [7] was 100 µM. In addition, the EC50 in the series with Human betaherpesvirus 5 [9] turned out to be 10.5 µM; with Human betaherpesvirus 5 [11] it was 53 µM.
